For series [1], the system named is human umbilical vein endothelial cells (HUVEC). Briefly: MTT assay, cytotoxicity in HUVEC. It counts as cell-based. The method, then:
(§1) Firstly, the cytotoxicity is measured by the MTT assay. Phytosphingosine (PS), phytosphingosine-HCl (PS-HCl), C6-phytosphingosine (C6-PS), CLA-phytosphingosine (CLA-PS), tetraacetyl phytosphingosine (TAPS), and N-acetyl phytosphingosine (NAPS) are dissolved into DMSO to have the final concentration of 1-100 μM.
(§2) In order to study the effects of the compositions of the present invention on the cytotoxicity in the human keratinocyte cell line HaCaT cells, the cell viability is analyzed by the MTT (3-[4,5-dimethylthiazol-2-yl]-2,5-diphenyltetrazolium bromide) assay. HaCaT cells are supplied by Professor N. Fuseng of German Cancer Research in Germany. HaCaT cells are seeded in a density of 1×10^6 cells in a […] and cultured in DMEM (Dulbecco's Modified Eagle Medium) containing 10% fetal bovine serum (FBS, GIBCO), 100 units/ml penicillin, and 100 μg/ml streptomycin for 48 hours. They are treated with trypsin and 1-2×10^4 cells per well are seeded again in a 96-well plate by using a serum-free culture medium, about 3 hours after which they are cultured by treatment with phytosphingosine derivatives. After they are cultured for 24 hours, the MTT reagent is added at a concentration of 2 mg/ml, cultured for 4 hours, suspended in DMSO after removing the culture medium completely in order to measure O.D. at 540 nm. C2-ceramide is used for comparison.
The MTT assay is used for the above purpose. Primary human umbilical vein endothelial cells are cultured from the human umbilical vein. The method of cell culture and the MTT assay are the same as those in the above. C2-ceramide is used for comparison.

The subject of series [2] is immune cells (T cells, B cells, macrophages, monocytes) from spleen of mice. The series is described as follows: MTT assay, cytotoxicity in immune cells separated from spleen of mice. It counts as cell-based. The method, then:
The effect of the composition of the present invention on the cytotoxicity in immune cells (T cells, B cells, macrophages, monocytes, etc.) was examined. The spleen was removed from normal mice (BDF) and single cells were obtained from the spleen by mechanical aggregation method. And mononuclear cells containing T cells, B cells, macrophages and monocytes were isolated from single cells by density gradient centrifugation method using Ficoll Hypaque. Briefly, single cells were treated with PBS and overlayed on Ficoll Hypaque and centrifuged at 1500 rpm for 30 min. After centrifugation, the cells around the boundary of the Ficoll-Hapaque were collected and washed three times with PBS. The isolated cells were cultured for 24 hours in the presence of 1, 10, 50 and 100 μM of NAPS, TAPS, and PS to examine the effect of cytotoxicity, i.e. the degree of proliferation of the cells. C2-ceramide was used as control. The medium used in this experiment was RPMI 1640 suplemented with 10% of FBS and 100 μg/ml of penicillin and streptomycin.

Series [3] has as its system peripheral blood mononuclear cells (PBMC). The series is described as follows: MTT assay, cytotoxicity in peripheral blood mononuclear cells. The series is classed as cell-based, human. The note with it: up to 100 μM, 24 hours, FIG. 3. The method, then:
The effects of the composition of the present invention on the cytotoxicity in immune cells (T cells, B cells, macrophages, monocytes, etc.) obtained from human blood were examined. The blood was obtained from healthy volunteers and PBMC from the blood by mechanical aggregation method. And mononuclear cells containing T cells, B cells, macrophages and monocytes were isolated from single cells by density gradient centrifugation method using Ficoll Hypaque. Briefly, single cells were treated with PBS and overlayed on Ficoll Hypaque and centrifuged at 1500 rpm for 30 min. After centrifugation, the cells around the boundary of the Ficoll-Hapaque were collected and washed three times with PBS. […] And RPMI with 10% of serum was used as a medium. The isolated cells were cultured for 24 hours in the presence of 1, 10, 50 and 100 μM of NAPS, TAPS, and PS to examine the effect of cytotoxicity, i.e. the degree of proliferation of the cells. C2-ceramide was used as control.
A general note: Formazan colour is commonly taken as a measure of viable cells.

The subject of the next series is caspase-3. Briefly: Immunoblot analysis of active caspase-3. It counts as cell-based, human. As to conditions: HaCaT, FIG. 11. As to the method: In the confirmation of apoptosis-related proteins, the immunoblot analysis is performed in order to look into the effects of the compositions of the present invention on the expression of caspase-3, p53, and Chk1 proteins related to the induction of apoptosis.
HaCaT cells are cultured on a 100-mm dish and collected at the indicative time. The proteins are extracted by adding 500 μl of RIPA lysis buffer (1% Nonidet P-40, 1% sodium deoxycholate, 0.1% SDS, […], 0.01 M sodium phosphate, pH 7.2, 2 mM EDTA, 50 mM sodium fluoride and 0.2 mM sodium vanadate), and the concentration is measured by using the Bradford method. 1
Extracted proteins is electrophoresed on 12% polyacrylamide gel, and they are transferred to the nitrocellulose membrane. The membrane blocked with 5% non-fat milk is reacted with the primary antibodies (caspase-3, p53, and Chk1), washed, and reacted with the secondary HRP-conjugated antibody. The intensity of proteins is analyzed by using the ECL kit.
For orientation: A western blot detects proteins with antibodies after separation by electrophoresis.

For series [4], the system named is Th1 cells activation against allogenic cells (PBMC). Briefly: Reactions among allogenic cells, Th1 cells activation, MTT assay. The note with it: 50 μM, FIG. 5. The series is classed as cell-based, human. An excerpt:
Whether the composition of the present invention has a suppressive effect on the Th1 cells activation by allogenic cells in immune reation was examined.
PBMC obtained from different volunteers as described in the above 5 were used for responder cells and stimulator cells respectively. PBMC for stimulator cells were used after X-ray irradiation (3000 rad) to inhibit the proliferation of stimulator cells.
(§3) Each 2×10^5 responder cells and stimulator cells were mixed with each other and cultured for 5 days on the 96-well plate. And RPMI with 10% of serum was used as a medium.
(§4) The above cells were cultured for 24 hours in the presence of 1, 10, 50 and 100 μM of NAPS, TAPS, and PS to examine the proliferation of the cells.
(§5) C2-ceramide was used as control.

Series [5] concerns A431 cells, human skin cancer cell line. The series is described as follows: MTT assay, cytotoxicity in human skin cancer cell line. It counts as cell-based. As to the method: as §1, §2
In order to study the effects of the compositions of the present invention on the cytotoxicity in A431 cells, human skin cancer cell line, the MTT assay is used. The method of cell culture and MTT assay are the same as those in the above method. C2-ceramide is used for comparison.

The test system of series [6] is HaCaT cells human keratinocyte cell line. The series is described as follows: MTT assay, combined administration with Vit D3 or calcipotriol. It counts as cell-based. As to conditions: 24 hours; for Cell viability: HaCaT, in %. The method, then: In order to study the synergistic effect in the cytotoxicity when the compositions of the present invention are administered in combination with Vit D3 or calcipotriol, the cell viability is analyzed by MTT assay method in HaCaT cells human keratinocyte cell line.
To HaCaT cells, 1 μM of Vit D3 or calcipotriol, or 10 μM each of NAPS and TAPS, is administered singly or in combination with each other, and they are cultured for 24 hours. And the effects of these drugs on the cytotoxicity according to the single or combined administration are observed by MTT assay. C2-ceramide is used for comparison.

The subject of series [7] is human keratinocyte cell line HaCaT cells. Briefly: MTT assay, cytotoxicity in human keratinocyte cell line. It counts as cell-based. As to the method:
as §1, §2

The subject of a further series is Th1 cells activation. Briefly: Mixed leukocyte reaction (MLR), Th1 cells activation by TNBSO3, MTT assay. The series is classed as cell-based, mice. The note with it: MLR with TNBSO3-conjugated stimulator cells, FIG. 4. The method, then:
Whether the composition of the present invention has a suppressive effect on the Th1 cells activation which isolate […], IL-12, etc. by reacting with TNBSO3 […] was examined.
The mononuclear cells obtained from spleen of mice as described the above 4 were used for responder cells, and TNBSO3-conjugated cells were used for stimulator cells. The stimulator cells were obtained as follows:
The mononuclear cells were adjusted to be 2×10^7 cells/ml in PBS and the same volume of 20 mM TNBSO3 was added and incubated at 37° C. for 10 min in the dark state. After incubation, the cells wrer washed three times with PBS.
as §3, §4, §5

The subject of a further series is HaCaT cells. The series is described as follows: MTT assay, combined treatment with UVB irradiation. The series is classed as cell-based, human. The arrangement: Cell viability: unit not given here. The note with it: HaCaT. As to the method:
In order to study the synergistic effect in the cytotoxicity by the cotreatment with administration of the compositions of the present invention and with UVB irradiation, the cell viability is analyzed by MTT assay method in HaCaT cells. On a 100-mm dish, 1×10^6 HaCaT cells are seeded and cultured in DMEM containing 10% fetal bovine serum, 100 units/ml penicillin, and 100 μg/ml streptomycin for 48 hours. They are treated with trypsin, and 1-2×10^4 cells per well are seeded on a 96-well plate again by using a serum-free medium, which is removed after about 3 hours. HaCaT cells are washed with PBS three times, and 3.5 ml of PBS per plate is added. It is then irradiated with 200 J/m^2 of UVB. After irradiation, the medium is replaced with a DMEM medium. Then it is treated with the phytosphingosine derivatives of the present invention, and cultured for 24 hours. After 2 mg/ml of the MTT reagent is added, it is cultured for 4 hours. The medium is removed completely, the cells are suspended in DMSO, and O.D. is measured at 540 nm.

In general, IC50 refers to the point on the concentration scale where inhibition reaches its midpoint. `CCCCCCCCCCCCC/C=C/[C@@H](O)[C@H](CO)NC(C)=O` [C2-ceramide, reference compound]: the Cell viability in series [1] (3.5 µM) was 90 ± 11.6; in series [1] (7 µM), 60 ± 7.7; in series [1] (15 µM), 61 ± 8.4; in series [1] (30 µM), 34 ± 2.3; in series [5] (3 µM) it was 113 ± 19.8; in series [5] (10 µM), 97 ± 14.7. For the same compound, the Cell viability in series [5] (30 µM) amounted to 82 ± 1.4; in series [5] (50 µM), 74 ± 12.8; in [6] (10 μM combined with Vit D3 (1 μM)), 71 ± 9; in series [6] (10 μM combined with calcipotriol (1 μM)) it was 70 ± 4; in series [6] (10 μM singly), 78 ± 2; in series [7] (1 µM), 97 ± 3.8. The Cell viability in series [7] (3 µM) turned out to be 98 ± 2.5; in series [7] (10 µM), 75 ± 1.3; in series [7] (30 µM) it was 33 ± 0.6. In addition, the IC50 in [2] is ~75 µM. In addition, the “cytotoxicity to PBMC” value in series [3] was “did not show the cytotoxicity”. Moreover, in the series on caspase-3 (after treatment), the “time to maximum active caspase-3” value is ≤ 3 h. Besides, the “maximum increase of active caspase-3 (expression of induction)” value in the series on caspase-3 (immunoblot) turned out to be 2.5 folds. For the same compound, in [4], the “suppressive effect on Th1 cells activation against allogenic cells” value is listed as “almost no suppressive effect”. In addition, in the series on Th1 cells activation, the “concentration showing a suppressive effect on Th1 cells activation” value turned out to be 50 µM.
With `CCCCCCCCCCCCCCC(O)C(O)C(CO)NC(=O)CCCCC` (centres unmarked) [C6-PS, C6-phytosphingosine], the Cell viability stood at 106 ± 9.7 in series [5] (3 µM); 61 ± 8.1 in series [5] (10 µM); 57 ± 10.4 in series [5] (30 µM); 44 ± 9.6 in series [5] (50 µM); 84 ± 16.8 in series [7] (1 µM); 96 ± 7.2 in [7] (3 µM). For the same compound, the Cell viability in [7] (10 µM) was 74 ± 10.1; in series [7] (30 µM), 87 ± 1.3.
Turning to `CCCCCCCCCCCCCC[C@@H](O)[C@@H](O)[C@@H](N)CO.Cl` [PS-HCl, phytosphingosine-HCl], the Cell viability in series [5] (human, 24 h, 3 µM) is reported as 105 ± 5.8; in series [5] (human, 24 h, 10 µM) it was 109 ± 8.6; in series [5] (human, 24 h, 30 μM) it was 7 ± 1.6; in series [5] (human, 24 h, 50 μM), 2 ± 0.2; with HaCaT cells (1 μM + UVB 200 J/m^2, 24 hours), 39 ± 4.5; with HaCaT cells (1 μM, no UVB, 24 hours) it was 83 ± 7.9. Further, the Cell viability with HaCaT cells (3 μM + UVB 200 J/m^2, 24 hours) is reported as 24 ± 2.0; in the series on HaCaT cells (3 μM, no UVB, 24 hours), 78 ± 10.0; with HaCaT cells (5 μM + UVB 200 J/m^2, 24 hours), 25 ± 1.9; in the series with HaCaT cells (5 μM, no UVB, 24 hours), 78 ± 6.7; with HaCaT cells (10 μM + UVB 200 J/m^2, 24 hours) it was 2 ± 0.5; in the series with HaCaT cells (10 μM, no UVB, 24 hours), 75 ± 8.2. Further, the Cell viability in series [7] (human, 24 h, 1 µM) was found to be 100 ± 4.1; in series [7] (human, 24 h, 3 µM), 101 ± 2.2; in [7] (human, 24 h, 10 µM) it was 79 ± 7.0; in series [7] (human, 24 h, 30 μM), 36 ± 6.8. In addition, in series [5] (human, 24 h, 50 μM), the cytotoxicity is on record as 95-98%.
For `C=C1CC[C@H](O)C/C1=C/C=C1\CCC[C@]2(C)[C@@H]([C@H](C)CCCC(C)C)CC[C@@H]12` [Vit D3, vitamin D3, reference compound], in series [6] (1 μM singly), the toxicity is reported as 19% and the Cell viability is given as 81 ± 3.
As to CLA-phytosphingosine [CLA-PS], the Cell viability in series [5] (3 µM) was found to be 91 ± 11.0; in series [5] (10 µM) it was 98 ± 12.9; in [5] (30 µM), 60 ± 6.2; in series [5] (50 µM), 65 ± 5.5; in series [7] (1 µM), 66 ± 7.8; in series [7] (3 µM) it was 64 ± 9.9. The results for the Cell viability in series [7] (10 µM) and in series [7] (30 µM) were 58 ± 0.4 and 55 ± 9.1, respectively.

The values above are taken from patent US20060166934A1, “Composition comprising phytosphingosine derivatives for apoptosis induction” (Tae-Yoon Kim, priority 2002, published 2006).
